From patent publication US5229419A, “Chemotherapeutically active acetogenins” (Purdue Research Foundation, priority 1992, dated 1993)
≈ marks a conversion by molar mass, not a printed value.

Tests used:
P388/ADR = test: NCI in vitro cytotoxicity, leukemia; format: cell-based; conditions: Mus musculus
TE-671 = test: NCI in vitro cytotoxicity, CNS cancer; format: cell-based; conditions: Homo sapiens
UO-31 = test: NCI in vitro cytotoxicity, renal cancer; format: cell-based; conditions: Homo sapiens
A498 = test: NCI in vitro cytotoxicity, renal cancer; format: cell-based; conditions: Homo sapiens
H23 = test: NCI in vitro cytotoxicity, non-small cell lung cancer; format: cell-based; conditions: Homo sapiens
H460 = test: as above; format: cell-based; conditions: Homo sapiens
U251 = test: NCI in vitro cytotoxicity, CNS cancer; format: cell-based; conditions: Homo sapiens, U-251
LOX = test: NCI in vitro cytotoxicity, melanoma; format: cell-based; conditions: Homo sapiens
From the text: (§1) Isolated pure compounds were sent to the National Institute of Health, National Cancer Institute, Bethesda, Md., for testing in human cancer cell line panels including leukemia, non-small cell lung cancer, small cell lung cancer, CNS cancer, melanoma, ovarian cancer and renal cancer.
(§2) To test further the selective specificity of antitumor activities, bullatacin was sent to the NIH, NCI at Bethesda, Md., for their human tumor cell line panel tests including leukemia, non-small cell lung cancer, small cell lung cancer, colon cancer, breast cancer, CNS cancer melanoma, ovarian cancer, and renal cancer.

[1] = system: human tumor cell line panel; test: NCI human tumor cell line panel, overall; format: cell-based; conditions: Table 6 summary
H524 = test: NCI in vitro cytotoxicity, small cell lung cancer; format: cell-based; conditions: Homo sapiens
K562 = test: NCI in vitro cytotoxicity, leukemia; format: cell-based; conditions: Homo sapiens
H82 = test: NCI in vitro cytotoxicity, small cell lung cancer; format: cell-based; conditions: Homo sapiens
OVCAR-3 = test: NCI in vitro cytotoxicity, ovarian cancer; format: cell-based; conditions: Homo sapiens
H522 = test: NCI in vitro cytotoxicity, non-small cell lung cancer; format: cell-based; conditions: Homo sapiens
SK-MEL5 = test: NCI in vitro cytotoxicity, melanoma; format: cell-based; conditions: Homo sapiens, SK-MEL-5
SW620 = test: NCI in vitro cytotoxicity, colon cancer; format: cell-based; conditions: Homo sapiens, SW-620
CAKI-1 = test: NCI in vitro cytotoxicity, renal cancer; format: cell-based; conditions: Homo sapiens
MALME-3M = test: NCI in vitro cytotoxicity, melanoma; format: cell-based; conditions: Homo sapiens
H125 = test: NCI in vitro cytotoxicity, non-small cell lung cancer; format: cell-based; conditions: Homo sapiens
HOP-62 = test: as above; format: cell-based; conditions: Homo sapiens
A704 = test: NCI in vitro cytotoxicity, renal cancer; format: cell-based; conditions: Homo sapiens
SK-MEL2 = test: NCI in vitro cytotoxicity, melanoma; format: cell-based; conditions: Homo sapiens, SK-MEL-2
EKV-X = test: NCI in vitro cytotoxicity, non-small cell lung cancer; format: cell-based; conditions: Homo sapiens, EKVX
[2] = system: cotton aphid (CA) Aphis gossypii; test: pesticidal bioassay, cotton aphid (CA); format: in vivo; conditions: at 1 ppm
Protocol: Pesticidal bioassays were conducted at Eli Lilly Laboratories (Greenfield, Ind.) following standard procedures with eight indicator organisms: mosquito larvae (ML) Aedes aegypti (in the media), blowfly larvae (BFL) (1% in the diet), corn root worm (CRW) Diabrotics undecimcuntata howardii (in soil), two-spotted spider mite (2SSM) Tetranychus urticae (on foliage), southern army worm (SAW) Spodoptera eridania (on foliage), melon aphid (MA) (5000 ppm on foliage), cotton aphid (CA) Aphis gossypii, (on foliage) and Haemonchus contortus (HC) (a nematode, 0.1% in the media).

A-549(ATCC) = test: NCI in vitro cytotoxicity, non-small cell lung cancer; format: cell-based; conditions: Homo sapiens, A549
From the text: as §1, §2

H146 = test: NCI in vitro cytotoxicity, small cell lung cancer; format: cell-based; conditions: Homo sapiens
protein tyrosine kinase = protein tyrosine kinase test; format: biochemical
H322 = test: NCI in vitro cytotoxicity, non-small cell lung cancer; format: cell-based; conditions: Homo sapiens
RPMI-7951 = test: NCI in vitro cytotoxicity, melanoma; format: cell-based; conditions: Homo sapiens

## CCCCCCCCCCC(O)C1CCC(C2CCC(C(O)CCCCCCCCCCC(O)CC3=CC(C)OC3=O)O2)O1 (stereo not shown) [Bullatacin]
P388/ADR
  IC50: < 0.000926 µg/mL
  IC90: 2.56 µg/mL (≈ 4.11 µM)
TE-671
  IC50: 0.0256 ng/mL (≈ 4.11e-05 µM)
  IC90: 0.00274 µg/mL (≈ 0.0044 µM)
UO-31
  IC50: 1.94 µg/mL (≈ 3.11 µM)
  IC90: > 9.26 µg/mL
A498
  IC50: 0.0424 ng/mL (≈ 6.81e-05 µM)
  IC90: 0.00371 µg/mL (≈ 0.00596 µM)
H23
  IC50: 2.38 µg/mL (≈ 3.82 µM)
  IC90: 9.21 µg/mL (≈ 14.8 µM)
H460
  IC50: 0.0287 ng/mL (≈ 4.61e-05 µM)
  IC90: 0.000185 µg/mL (≈ 0.000297 µM)
U251
  IC50: < 0.00924 ng/mL
  IC90: 0.0437 ng/mL (≈ 7.02e-05 µM)
LOX
  IC50: < 0.000926 µg/mL
  IC90: 3.76 µg/mL (≈ 6.04 µM)
[1]
  tumor types most sensitive in panel: best active for certain CNS cancers, non-small cell lung cancers, leukemias, and ovarian cancers
H524
  IC50: 2.69 µg/mL (≈ 4.32 µM)
  IC90: 7.54 µg/mL (≈ 12.1 µM)
K562
  IC50: < 0.000926 µg/mL
  IC90: 4.5 µg/mL (≈ 7.22 µM)
H82
  IC50: 1.99 µg/mL (≈ 3.19 µM)
  IC90: 7.14 µg/mL (≈ 11.5 µM)
OVCAR-3
  IC50: > 0.0924 µg/mL
  IC90: > 0.0924 µg/mL
H522
  IC50: 2.46 µg/mL (≈ 3.95 µM)
  IC90: > 9.24 µg/mL
SK-MEL5
  IC50: > 0.000926 µg/mL
  IC90: 5.22 µg/mL (≈ 8.38 µM)
SW620
  IC50: 0.00564 µg/mL (≈ 0.00905 µM)
  IC90: 5.66 µg/mL (≈ 9.09 µM)
CAKI-1
  IC50: 0.00394 µg/mL (≈ 0.00632 µM)
  IC90: > 0.0924 µg/mL
MALME-3M
  IC50: 2.82 µg/mL (≈ 4.53 µM)
  IC90: 7.67 µg/mL (≈ 12.3 µM)
H125
  IC50: 2.4 µg/mL (≈ 3.85 µM)
  IC90: > 9.26 µg/mL
HOP-62
  IC50: < 0.000926 µg/mL
  IC90: 5.13 µg/mL (≈ 8.24 µM)
A704
  IC50: 1.36 µg/mL (≈ 2.18 µM)
  IC90: 8 µg/mL (≈ 12.8 µM)
SK-MEL2
  IC90: 8.64 µg/mL (≈ 13.9 µM)
EKV-X
  IC50: 0.000115 µg/mL (≈ 0.000185 µM)
  IC90: > 0.0926 µg/mL
[2]
  toxicity to cotton aphids: significantly toxic
A-549(ATCC)
  IC90: > 0.0924 µg/mL
H146
  IC90: > 9.26 µg/mL
Protein tyrosine kinase
  result in the protein tyrosine kinase test: negative result
H322
  IC50: < 0.000926 µg/mL
  IC90: > 9.26 µg/mL
RPMI-7951
  IC50: 2.73 µg/mL (≈ 4.38 µM)
  IC90: 7.71 µg/mL (≈ 12.4 µM)
